Consider 9 compounds from patent publication US20040110826A1, “Receptor Antagonists” (priority 2001, published 2004).

Molecules are shown by their SMILES.

For data set [1], the system named is MPTP-treated common marmoset. In words: Anti-dyskinesia activity: LID score in MPTP-treated common marmoset model with repeated L-DOPA. Format: in vivo. Conditions: L-DOPA-induced dyskinesia (LID) score, test compound plus L-DOPA vs vehicle plus L-DOPA, 4 animals per group. The text has this:
Parkinson's disease is characterized by degeneration and neuronal cell death of the nigrostriatal dopaminergic neurons. In primates, treatment with a dopamine neurotoxin, 1-methyl-4-phenyl-1,2,3,6-tetrahydropyridine (hereinafter referred to as “MPTP”), causes selective degeneration and loss of the nigrostriatal dopaminergic neurons, showing akinesia, rigidity, etc. These MPTP-treated primates are known as a model of Parkinson's disease [Proceedings of the National Academy of Science USA, Vol. 80, p. 4546 (1983)]. Common marmoset belongs to Anthropoidea and is known to show Parkinsonian symptoms caused by MPTP treatment as in the case of other Anthropoidea [Neuroscience Letter, Vol. 57, p. 37 (1985)). On the other hand, current treatment for Parkinson's disease is based primarily on dopamine replacement therapy by administration of L-DOPA. The administration of L-DOPA is effective treatment of symptoms associated with Parkinson's disease (anti-Parkinson activity). However, the long-term therapy using L-DOPA is known to cause loss of medicinal efficacy (wearing off and on-off), dyskinesia, psychosis, etc. Particularly, L-DOPA-induced dyskinesia (hereinafter referred to as “LID”) has become an issue due to the frequency of its development and the pain of the patients. […] 731 (1995)].
This test was carried out using 4 animals per group of female and male common marmosets of 5 to 7 years of age (300 to 375 g in body weight, CLEA Japan). MPTP (RBI) was dissolved in physiological saline for injection (Otsuka Pharmaceutical Co., Ltd.) and subcutaneously administered to each common marmoset once a day for 5 days in a dose of 2.0 mg/kg. More than six weeks after the administration, animals showing chronic symptoms of Parkinson's disease were used to prepare a model of dyskinesia. […] The locomotor activity was measured at 10-minute intervals for 12 hours by a computer-controlled automatic measuring apparatus. […]

Data set [2] has as its target T1, α2C-adrenoceptor (Homo sapiens, UniProt P18825).
T1 sequence (P18825 1-462): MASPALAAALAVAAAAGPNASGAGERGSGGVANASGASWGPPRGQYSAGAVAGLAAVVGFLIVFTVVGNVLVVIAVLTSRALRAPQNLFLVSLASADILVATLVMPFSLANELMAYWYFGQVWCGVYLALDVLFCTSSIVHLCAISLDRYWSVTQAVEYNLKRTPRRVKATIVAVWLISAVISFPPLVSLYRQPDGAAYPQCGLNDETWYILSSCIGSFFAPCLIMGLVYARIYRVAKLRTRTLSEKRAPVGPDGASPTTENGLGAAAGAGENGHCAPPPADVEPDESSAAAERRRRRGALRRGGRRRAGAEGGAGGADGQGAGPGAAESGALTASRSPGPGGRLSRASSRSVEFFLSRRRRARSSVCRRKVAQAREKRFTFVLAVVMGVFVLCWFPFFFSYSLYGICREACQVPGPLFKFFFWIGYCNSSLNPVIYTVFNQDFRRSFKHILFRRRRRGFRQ
The note with it: described in J. Pharmacol. Exp. Ther. 271, 1558 (1994) and Proc. Natl. Acad. Sci. USA 85, 6301 (1988); cited from earlier work.

In data set [3] the target is T1, α2C-adrenoceptor. In words: α2c-Adrenoceptor binding test (3H-MK-912 binding, HepG2 cell membrane fraction). Further details: the membrane fraction of the cultured cells was used; endogenous in cells; host or cells: HepG2 (human hepatoma) cell membrane fraction. The note with it: 0.5 h, test compound 10^−7 mol/l, read-out: Inhibition ratio (%) against α2c-adrenoceptor binding. How it is done: Adrenoceptor Binding Activity (α2c-Adrenoceptor Binding Test)
This test was carried out according to the method of Schaak et al. [Journal of Pharmacological Experimental Therapeutics, Vol. 281, p. 983 (1997)] as slightly modified.
Human hepatocyto HepG2 cells were cultured in DMEM medium (GIBCO BRL) containing 10% fetal bovine serum (FBS), 100 units/ml penicillin and 100 μg/ml streptomycin, and the membrane fraction of the cultured cells was used. The cultured cells were washed with phosphate-buffered saline (PBS), then scraped with a scraper and recovered by centrifugation at 800 rpm for 5 minutes. To the cells was added a buffer [50 mmol/l tris(hydroxymethyl)aminomethane: Tris, 5 mmol/l ethylenediamine tetraacetic acid (EDTA), pH 7.5], and the cells were suspended using Polytron Homogenizer (Kinematica), followed by centrifugation at 39,000×g for 10 minutes. The precipitate thus obtained was re-suspended in the same amount of the buffer, and the cell suspension was obtained by centrifugation and removing the supernatant in a similar manner.
To 100 μl of the cell suspension were added 80 μl of tritium-labeled MK-912 (methyl-^3H: 2.89 TBq/mmol; New England Nuclear) (final concentration: 1.0 nmol/l) and 20 μl of a test compound. The mixture was allowed to stand at 25° C. for 30 minutes and then rapidly filtered by suction through a glass fiber filter treated with 0.3% polyethyleneimine (GF/C; Whatman). The filter was immediately washed 3 times with 200 μl of an ice-cooled buffer and transferred to a vial. A liquid scintillator (ULTIMA GOLD; Packard) was added thereto and the radioactivity was measured with a liquid scintillation counter (Packard).
The inhibition ratio of the test compound against the α2C-adrenoceptor binding (^3H-MK-912 binding) was calculated using the following equation.
Inhibition ratio (%)={1−(amount of the binding in the presence of the test compound−amount of the nonspecific binding)/(amount of the total binding−amount of the nonspecific binding)}×100
(Note) Amount of the total binding means the amount of radioactivity of ^3H-MK-912 bound in the absence of the test compound. Amount of the nonspecific binding means the amount of radioactivity of ^3H-MK-912 bound in the presence of 10 μmol/l Yohimbine (Sigma). Amount of the binding in the presence of the test compound means the amount of radioactivity of ^3H-MK-912 bound in the presence of varied concentrations of the test compound.

As for `COc1ccccc1N1CCN(CCN2C(=O)c3ccccc3C(C)(C)C2=O)CC1` [ARC239], the anti-dyskinesia activity entry in data set [1] is “showed anti-dyskinesia activity”. Besides, the “affinity to α2C-adrenoceptor” value at α2C-adrenoceptor [2] is recorded as “having an affinity to α2C-adrenoceptor”. `CC1c2ccccc2CN1CC1=NCCN1` (stereo not drawn) [BRL44408]: the anti-dyskinesia activity entry in data set [1] is “did not show anti-dyskinesia activity”. Besides, the “affinity to α2C-adrenoceptor” value on α2C-adrenoceptor [2] is “low affinity”.

The compound `Nc1ncc(CN2CCN(Cc3ccncc3)CC2)c2nc(-c3ccco3)nn12` [Compound 35, 5-Amino-2-(2-furyl)-8-[4-(4-pyridylmethyl)piperazin-1-ylmethyl][1,2,4]triazolo[1,5-c]pyrimidine] displayed a melting point of 168.7 to 169.2 °C. With `Nc1ncc(CNCC2COc3ccccc3O2)c2nc(-c3ccco3)nn12` (stereo not drawn) [Compound 213, 5-Amino-8-(1,4-benzodioxan-2-ylmethylaminomethyl)-2-(2-furyl)[1,2,4]triazolo[1,5-c]pyrimidine], the inhibition at 0.1 µM on α2C-adrenoceptor [3] came to 96%. On to `CN(Cc1ccccc1)c1ncc(CN2CCN(c3ccccc3F)CC2)c2nc(-c3ccco3)nn12` [Compound 370, 8-[4-(2-Fluorophenyl)piperazin-1-ylmethyl]-2-(2-furyl)-5-(N-methylbenzylamino)[1,2,4]triazolo[1,5-c]pyrimidine], for which the inhibition at 0.1 µM at α2C-adrenoceptor [3] came to 91%. On to `CSc1ncc(CN2CCc3ccccc3C2)c2nc(-c3ccco3)nn12` [Compound 452, 2-(2-Furyl)-5-methylthio-8-(1,2,3,4-tetrahydroisoquinolin-2-ylmethyl)[1,2,4]triazolo[1,5-c]pyrimidine], for which the inhibition at 0.1 µM on α2C-adrenoceptor [3] stood at 58%. For the compound `O=c1[nH]cc(CN2CCN(c3ccccc3)CC2)c2nc(-c3ccco3)nn12` [Compound 483, 2-(2-Furyl)-8-(4-phenylpiperazin-1-ylmethyl)-6H-[1,2,4]triazolo[1,5-c]pyrimidin-5-one], the inhibition at 0.1 µM at α2C-adrenoceptor [3] was found to be 60%.

In the case of `C1=C(CN2CCc3ccccc3C2)c2nc(-c3ccco3)nn2C2=NCCN12` [Compound 491, 2-(2-Furyl)-4-(1,2,3,4-tetrahydroisoquinolin-2-ylmethyl)-6,7-dihydro-1,3,5a,8,8b-pentaaza-as-indacene], the inhibition at 0.1 µM at α2C-adrenoceptor [3] is 74%. Take `c1ccc2c(c1)OCC(C1=NCCN1)O2` (stereo not drawn) [idazoxan]: in data set [1], the anti-dyskinesia activity entry is recorded as “showed anti-dyskinesia activity”. The “affinity to α2C-adrenoceptor” value at α2C-adrenoceptor [2] is on record as “having an affinity to α2C-adrenoceptor”.
